Measurements from ChEMBL document CHEMBL4732047, “New imidazopyridines with phosphodiesterase 4 and 7 inhibitory activity and their efficacy in animal models of inflammatory and autoimmune diseases” (Eur J Med Chem, 2021).

Assays:
[1] = molecular target: High affinity 3',5'-cyclic-AMP phosphodiesterase 7A (Homo sapiens, UniProt Q13946); experiment: Inhibition of human recombinant PDE7A using cAMP as substrate incubated for 20 mins measured by Kinase Glo reagent based microplate reader assay
[2] = molecular target: 3',5'-cyclic-AMP phosphodiesterase 4B (Homo sapiens, UniProt Q07343); experiment: Inhibition of human recombinant PDE4B using cAMP as substrate incubated for 20 mins measured by Kinase Glo reagent based microplate reader assay
[3] = molecular target: cGMP-dependent 3',5'-cyclic phosphodiesterase (Homo sapiens, UniProt O00408); experiment: Inhibition of human recombinant PDE2A using cGMP as substrate incubated for 20 mins measured by Kinase Glo reagent based microplate reader assay
[4] = molecular target: cGMP-specific 3',5'-cyclic phosphodiesterase (Homo sapiens, UniProt O76074); experiment: Inhibition of human recombinant PDE5A using cGMP as substrate incubated for 20 mins measured by Kinase Glo reagent based microplate reader assay
[5] = Selectivity index, ratio of IC50 for inhibition of human recombinant PDE4D to IC50 for inhibition of human recombinant PDE4B
[6] = molecular target: 3',5'-cyclic-AMP phosphodiesterase 4D (Homo sapiens, UniProt Q08499); experiment: Inhibition of human recombinant PDE4D using cAMP as substrate incubated for 20 mins measured by Kinase Glo reagent based microplate reader assay
[7] = Selectivity index, ratio of IC50 for inhibition of human recombinant PDE3A to IC50 for inhibition of human recombinant PDE4B
[8] = molecular target: cAMP and cAMP-inhibited cGMP 3',5'-cyclic phosphodiesterase 10A (Homo sapiens, UniProt Q9Y233); experiment: Inhibition of human recombinant PDE10A using cAMP as substrate incubated for 20 mins measured by Kinase Glo reagent based microplate reader assay
[9] = molecular target: cGMP-inhibited 3',5'-cyclic phosphodiesterase 3A (Homo sapiens, UniProt Q14432); experiment: Inhibition of human recombinant PDE3A using cAMP as substrate incubated for 20 mins measured by Kinase Glo reagent based microplate reader assay
[10] = molecular target: Dual specificity calcium/calmodulin-dependent 3',5'-cyclic nucleotide phosphodiesterase 1B (Homo sapiens, UniProt Q01064); experiment: Inhibition of human recombinant PDE1B using cAMP as substrate incubated for 20 mins measured by Kinase Glo reagent based microplate reader assay
Dual specificity calcium/calmodulin-dependent 3',5'-cyclic nucleotide phosphodiesterase 1B, sequence (Q01064 whole entry): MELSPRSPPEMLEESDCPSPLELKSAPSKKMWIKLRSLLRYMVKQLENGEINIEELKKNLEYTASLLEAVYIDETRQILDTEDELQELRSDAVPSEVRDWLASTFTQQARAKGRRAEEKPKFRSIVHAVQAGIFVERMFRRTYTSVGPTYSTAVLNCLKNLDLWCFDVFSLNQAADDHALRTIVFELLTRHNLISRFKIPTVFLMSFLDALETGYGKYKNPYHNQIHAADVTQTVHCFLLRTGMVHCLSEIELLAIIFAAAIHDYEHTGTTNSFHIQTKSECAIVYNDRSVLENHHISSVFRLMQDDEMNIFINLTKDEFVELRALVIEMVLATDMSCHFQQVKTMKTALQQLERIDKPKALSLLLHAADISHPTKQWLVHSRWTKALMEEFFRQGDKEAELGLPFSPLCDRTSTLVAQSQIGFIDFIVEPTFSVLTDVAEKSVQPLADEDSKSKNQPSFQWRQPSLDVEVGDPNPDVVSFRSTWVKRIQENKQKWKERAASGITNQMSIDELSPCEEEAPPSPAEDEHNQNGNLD

High affinity 3',5'-cyclic-AMP phosphodiesterase 7A, sequence (Q13946 whole entry): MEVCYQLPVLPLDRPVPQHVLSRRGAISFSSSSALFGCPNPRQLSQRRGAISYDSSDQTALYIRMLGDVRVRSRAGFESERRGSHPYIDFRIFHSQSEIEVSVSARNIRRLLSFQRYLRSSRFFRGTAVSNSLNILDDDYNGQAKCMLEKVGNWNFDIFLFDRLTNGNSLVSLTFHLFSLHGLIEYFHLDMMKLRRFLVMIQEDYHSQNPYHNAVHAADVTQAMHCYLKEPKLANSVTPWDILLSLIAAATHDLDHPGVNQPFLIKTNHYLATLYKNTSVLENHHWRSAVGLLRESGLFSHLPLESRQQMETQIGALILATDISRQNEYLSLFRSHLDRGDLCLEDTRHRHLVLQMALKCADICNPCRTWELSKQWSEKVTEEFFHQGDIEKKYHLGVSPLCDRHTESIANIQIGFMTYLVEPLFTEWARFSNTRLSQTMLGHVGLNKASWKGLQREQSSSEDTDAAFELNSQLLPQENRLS
3',5'-cyclic-AMP phosphodiesterase 4B, sequence (Q07343 whole entry): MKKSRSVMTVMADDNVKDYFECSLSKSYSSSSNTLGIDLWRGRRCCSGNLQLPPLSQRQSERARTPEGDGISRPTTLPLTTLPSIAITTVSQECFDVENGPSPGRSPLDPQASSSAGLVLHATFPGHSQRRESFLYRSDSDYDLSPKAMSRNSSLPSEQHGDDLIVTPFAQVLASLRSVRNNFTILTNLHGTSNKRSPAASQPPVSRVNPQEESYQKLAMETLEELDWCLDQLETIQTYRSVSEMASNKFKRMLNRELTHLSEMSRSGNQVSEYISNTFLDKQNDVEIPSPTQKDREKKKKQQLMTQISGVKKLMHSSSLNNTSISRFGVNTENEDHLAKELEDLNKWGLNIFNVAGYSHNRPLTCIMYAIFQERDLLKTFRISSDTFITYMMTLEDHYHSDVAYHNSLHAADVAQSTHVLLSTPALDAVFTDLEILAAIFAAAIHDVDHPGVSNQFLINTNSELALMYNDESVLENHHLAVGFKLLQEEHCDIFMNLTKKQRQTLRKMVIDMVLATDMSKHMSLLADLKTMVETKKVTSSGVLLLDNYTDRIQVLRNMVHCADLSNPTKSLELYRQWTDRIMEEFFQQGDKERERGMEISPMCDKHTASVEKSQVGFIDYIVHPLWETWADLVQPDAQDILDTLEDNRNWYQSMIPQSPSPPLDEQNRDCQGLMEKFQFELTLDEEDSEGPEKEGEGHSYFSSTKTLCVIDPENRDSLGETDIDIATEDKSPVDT
cGMP-dependent 3',5'-cyclic phosphodiesterase, sequence (O00408 whole entry): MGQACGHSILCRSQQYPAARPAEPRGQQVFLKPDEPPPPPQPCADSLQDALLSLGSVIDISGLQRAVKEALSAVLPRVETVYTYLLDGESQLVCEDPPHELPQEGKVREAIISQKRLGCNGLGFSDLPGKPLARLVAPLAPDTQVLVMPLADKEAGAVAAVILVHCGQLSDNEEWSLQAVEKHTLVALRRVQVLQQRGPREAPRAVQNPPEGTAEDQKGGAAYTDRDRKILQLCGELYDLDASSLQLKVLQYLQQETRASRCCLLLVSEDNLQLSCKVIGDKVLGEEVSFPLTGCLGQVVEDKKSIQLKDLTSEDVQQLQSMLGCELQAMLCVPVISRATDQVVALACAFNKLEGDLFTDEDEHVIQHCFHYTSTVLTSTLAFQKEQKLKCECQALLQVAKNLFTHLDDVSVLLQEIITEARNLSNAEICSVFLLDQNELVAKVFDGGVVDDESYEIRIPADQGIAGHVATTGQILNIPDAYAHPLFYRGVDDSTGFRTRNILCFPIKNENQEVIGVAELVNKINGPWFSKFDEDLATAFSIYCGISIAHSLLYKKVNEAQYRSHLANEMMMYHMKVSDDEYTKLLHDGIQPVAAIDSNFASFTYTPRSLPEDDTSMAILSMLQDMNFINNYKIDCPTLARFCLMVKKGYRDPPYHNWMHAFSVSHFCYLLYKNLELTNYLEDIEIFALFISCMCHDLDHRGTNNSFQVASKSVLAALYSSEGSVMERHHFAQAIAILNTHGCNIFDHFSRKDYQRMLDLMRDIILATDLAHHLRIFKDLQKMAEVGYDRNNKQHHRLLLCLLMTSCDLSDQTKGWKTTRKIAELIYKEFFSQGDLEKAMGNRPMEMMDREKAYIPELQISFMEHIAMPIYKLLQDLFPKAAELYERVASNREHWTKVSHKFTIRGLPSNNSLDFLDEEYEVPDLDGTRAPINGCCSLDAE
cAMP and cAMP-inhibited cGMP 3',5'-cyclic phosphodiesterase 10A, sequence (Q9Y233 whole entry): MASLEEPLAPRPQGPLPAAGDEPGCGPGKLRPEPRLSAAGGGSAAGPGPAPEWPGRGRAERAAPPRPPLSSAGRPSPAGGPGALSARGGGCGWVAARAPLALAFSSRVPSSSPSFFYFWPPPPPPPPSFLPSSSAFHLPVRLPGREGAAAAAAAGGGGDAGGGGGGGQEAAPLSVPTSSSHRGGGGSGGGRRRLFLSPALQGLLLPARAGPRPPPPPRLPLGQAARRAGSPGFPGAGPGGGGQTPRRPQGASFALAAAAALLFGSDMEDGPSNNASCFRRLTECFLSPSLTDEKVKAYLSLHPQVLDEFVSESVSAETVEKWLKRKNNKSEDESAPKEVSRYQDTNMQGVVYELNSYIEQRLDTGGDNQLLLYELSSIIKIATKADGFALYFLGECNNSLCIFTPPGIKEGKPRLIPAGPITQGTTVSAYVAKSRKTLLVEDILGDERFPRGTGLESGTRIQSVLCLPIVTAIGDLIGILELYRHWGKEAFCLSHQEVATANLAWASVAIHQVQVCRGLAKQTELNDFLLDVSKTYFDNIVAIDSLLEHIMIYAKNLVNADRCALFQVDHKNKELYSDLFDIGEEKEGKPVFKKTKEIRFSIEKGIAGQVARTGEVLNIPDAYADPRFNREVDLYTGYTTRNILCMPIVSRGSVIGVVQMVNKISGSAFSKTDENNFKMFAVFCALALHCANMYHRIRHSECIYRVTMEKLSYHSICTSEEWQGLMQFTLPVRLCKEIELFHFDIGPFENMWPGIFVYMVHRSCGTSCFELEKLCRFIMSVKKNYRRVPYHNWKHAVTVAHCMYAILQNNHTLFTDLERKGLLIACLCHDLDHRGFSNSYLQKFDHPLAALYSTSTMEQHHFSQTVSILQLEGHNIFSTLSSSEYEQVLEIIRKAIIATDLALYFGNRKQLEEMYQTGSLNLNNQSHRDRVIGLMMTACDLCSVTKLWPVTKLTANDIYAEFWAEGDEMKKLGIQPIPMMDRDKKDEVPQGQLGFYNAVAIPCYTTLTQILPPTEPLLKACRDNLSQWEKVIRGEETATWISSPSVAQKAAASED
3',5'-cyclic-AMP phosphodiesterase 4D, sequence (Q08499 whole entry): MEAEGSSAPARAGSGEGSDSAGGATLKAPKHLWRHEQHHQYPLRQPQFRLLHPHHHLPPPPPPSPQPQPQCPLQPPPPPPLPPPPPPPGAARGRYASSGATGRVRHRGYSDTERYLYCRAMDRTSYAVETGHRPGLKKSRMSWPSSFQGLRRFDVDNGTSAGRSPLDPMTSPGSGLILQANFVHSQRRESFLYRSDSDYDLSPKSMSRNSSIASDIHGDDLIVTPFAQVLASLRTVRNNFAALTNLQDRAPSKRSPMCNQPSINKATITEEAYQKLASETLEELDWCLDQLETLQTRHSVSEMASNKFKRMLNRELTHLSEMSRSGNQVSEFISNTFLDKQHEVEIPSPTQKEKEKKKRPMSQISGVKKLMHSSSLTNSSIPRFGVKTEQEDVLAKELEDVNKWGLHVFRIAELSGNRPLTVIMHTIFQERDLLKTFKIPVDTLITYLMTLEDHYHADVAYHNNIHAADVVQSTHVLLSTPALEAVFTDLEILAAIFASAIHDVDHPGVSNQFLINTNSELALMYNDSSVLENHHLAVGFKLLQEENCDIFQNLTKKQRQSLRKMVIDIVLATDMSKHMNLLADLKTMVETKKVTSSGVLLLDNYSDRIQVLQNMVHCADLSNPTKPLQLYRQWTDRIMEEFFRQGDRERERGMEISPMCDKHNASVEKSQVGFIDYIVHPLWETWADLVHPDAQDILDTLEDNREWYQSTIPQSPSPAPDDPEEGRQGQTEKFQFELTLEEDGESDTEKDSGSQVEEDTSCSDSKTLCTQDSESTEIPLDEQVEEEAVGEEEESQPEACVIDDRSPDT

SMILES	IC50 [1] [µM]	IC50 [2] [µM]	further results
CCCCCn1c(-c2ccco2)nc2c(N)ccnc21	> 200	39.9	
CCCCCC[C@H]([C@H](C)O)n1cnc2c(N)ncnc21 [(+)-EHNA]			IC50 [3]: 2.62 µM
OCCCNc1nccc2c1nc(-c1ccco1)n2C1CCCC1	> 200	19	
CCCCCn1c(-c2ccccc2)nc2c(NCCCO)nccc21	> 200	60	
CCCCCn1c(-c2ccccc2)nc2c(NCc3ccccc3)nccc21	> 200	102	
CCCCCn1c(-c2ccc([N+](=O)[O-])cc2)nc2c(N)ccnc21	> 200	> 200	
Nc1ccnc2c1nc(-c1ccccc1)n2CCCO	> 200	100	
Nc1ccnc2c1nc(-c1ccccc1)n2CCN1CCCCC1	> 200	103	
c1coc(-c2nc3c(NCCc4cccs4)ccnc3n2C2CCCC2)c1	> 200	3.25	

Continued, in another order:

IC50 [1] [µM]	IC50 [2] [µM]	SMILES	further results
> 200	8.66	CCCCCn1c(-c2ccco2)nc2c(NCc3ccccc3)ccnc21	
119	5.41	COCCNc1ccnc2c1nc(-c1ccco1)n2C1CCCC1	
1.31		Nc1nc(O)c2nc(Br)n(C3CCCc4cccc(Br)c43)c2n1 (centres undefined)	
192	18.1	COCCNc1nccc2c1nc(-c1ccco1)n2C1CCCC1	
90.5	8.6	COCCCNc1ccnc2c1nc(-c1ccco1)n2C1CCCC1	
2.32		Cc1ccc([N+](=O)[O-])cc1S(=O)(=O)N(C)C	
142	19.9	COCCCNc1nccc2c1nc(-c1ccco1)n2C1CCCC1	
34.2	3.53	CCCCCn1c(-c2ccco2)nc2c(NCCCOC)ccnc21	IC50 [4]: 53.5 µM; Ratio IC50 [5]: 10; IC50 [6]: 27.2 µM; Ratio IC50 [7]: > 10; IC50 [3]: 6.85 µM; IC50 [8]: 9.97 µM; IC50 [9]: 40.6 µM; IC50 [10]: 0.36 µM
